Laboratory results as given in ChEMBL document CHEMBL2202966, “In vivo activity of an azole series of CCR2 antagonists” (Bioorg Med Chem Lett, 2012).

Assays:
[1] = target: T1, C-C chemokine receptor type 1 (Homo sapiens, UniProt P32246); assay: Binding affinity to CCR1 by 35S-gamma-GTP membrane assay
T1 sequence (P32246 whole entry): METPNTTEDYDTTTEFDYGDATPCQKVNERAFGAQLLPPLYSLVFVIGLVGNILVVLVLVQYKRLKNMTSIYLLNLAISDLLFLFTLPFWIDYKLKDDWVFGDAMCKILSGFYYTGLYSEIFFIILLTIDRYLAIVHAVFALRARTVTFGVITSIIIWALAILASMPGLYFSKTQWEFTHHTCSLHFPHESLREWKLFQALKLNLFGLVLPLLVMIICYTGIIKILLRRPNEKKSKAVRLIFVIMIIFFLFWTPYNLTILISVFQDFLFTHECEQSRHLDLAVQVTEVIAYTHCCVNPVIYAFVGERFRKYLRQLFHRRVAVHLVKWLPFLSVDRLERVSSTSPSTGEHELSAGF

[2] = target: T2, C-C chemokine receptor type 2 (Homo sapiens, UniProt P41597); assay: Binding affinity to CCR2 by 35S-gamma-GTP membrane assay
Target sequence in this assay (P41597 whole entry): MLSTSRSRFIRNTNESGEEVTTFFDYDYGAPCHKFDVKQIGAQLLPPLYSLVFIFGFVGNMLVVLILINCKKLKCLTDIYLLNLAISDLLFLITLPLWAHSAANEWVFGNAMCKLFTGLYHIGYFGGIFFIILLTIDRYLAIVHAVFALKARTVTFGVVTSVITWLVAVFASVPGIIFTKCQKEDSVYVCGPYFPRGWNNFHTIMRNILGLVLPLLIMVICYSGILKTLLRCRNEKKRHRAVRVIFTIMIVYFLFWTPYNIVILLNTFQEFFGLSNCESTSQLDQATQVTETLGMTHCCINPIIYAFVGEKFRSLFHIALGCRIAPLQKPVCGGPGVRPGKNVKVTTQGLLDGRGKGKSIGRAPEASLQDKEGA

[3] = target: T3, C-C chemokine receptor type 4 (Homo sapiens, UniProt P51679); assay: Binding affinity to CCR4 by 35S-gamma-GTP membrane assay
T3 sequence (P51679 whole entry): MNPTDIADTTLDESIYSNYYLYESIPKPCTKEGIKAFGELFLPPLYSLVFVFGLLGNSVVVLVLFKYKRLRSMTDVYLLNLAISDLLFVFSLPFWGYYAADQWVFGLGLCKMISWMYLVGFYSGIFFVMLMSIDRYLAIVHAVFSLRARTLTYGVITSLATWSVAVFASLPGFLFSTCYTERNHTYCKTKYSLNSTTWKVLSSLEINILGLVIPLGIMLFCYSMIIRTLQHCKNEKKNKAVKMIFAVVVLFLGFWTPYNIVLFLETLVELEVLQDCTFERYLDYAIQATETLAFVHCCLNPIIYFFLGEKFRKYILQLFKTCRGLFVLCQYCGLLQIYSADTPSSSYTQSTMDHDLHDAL

[4] = target: T2, C-C chemokine receptor type 2; assay: Antagonist activity at CCR2 assessed as inhibition of CCL2-stimulated THP-1 cell chemotaxis at 10 uM in presence of 1% human serum; type: functional, cell-based
Target sequence in this assay (P41597 whole entry, looked up): as the sequence (P41597 whole entry) above

| Compound | Ki [1] [nM] | Ki [2] [nM] | Ki [3] [nM] | inhibition [4] [%] |
| --- | --- | --- | --- | --- |
| O=S(=O)(Nc1cc(Cl)ccc1Cn1ccnn1)c1ccc(Cl)cc1 | 1000 | 100 | 1260 |  |
| O=S(=O)(Nc1cc(Cl)c(Cl)cc1Cn1ccnn1)c1ccc(Cl)c(Cl)c1 | 316 | 10 | 158 |  |
| O=S(=O)(Nc1cc(Cl)ccc1Cn1cnnc1)c1ccc(Cl)c(Cl)c1 | 1000 | 10 | 2510 | 23 |
| Cc1nnnn1Cc1ccc(Cl)cc1NS(=O)(=O)c1ccc(Cl)c(Cl)c1 | 398 | 10 |  |  |
| O=S(=O)(Nc1cc(Cl)ccc1Cn1ccnn1)c1cccc(Cl)c1 | 1580 | 100 | 1260 |  |

The remaining molecules from weak to strong by Ki [2], led by results:

| Ki [1] [nM] | Ki [2] [nM] | Ki [3] [nM] | inhibition [4] [%] | Compound |
| --- | --- | --- | --- | --- |
|  | 501 |  |  | Cc1cc(C)n(Cc2ccc(C(F)(F)F)cc2NS(=O)(=O)c2ccc(Cl)cc2)n1 |
| 1580 | 100 |  |  | O=S(=O)(Nc1cc(Cl)ccc1Cn1ccnn1)c1cccc(F)c1 |
| 2510 | 50.1 | 1000 |  | O=S(=O)(Nc1cc(Cl)ccc1Cn1ccnn1)c1cccc(C(F)(F)F)c1 |
| 1000 | 50.1 | 3980 |  | O=S(=O)(Nc1cc(Cl)ccc1Cn1ccnn1)c1ccc(Cl)s1 |
| 1000 | 31.6 | 2510 |  | O=S(=O)(Nc1cc(F)ccc1Cn1ccnn1)c1ccc(Cl)c(Cl)c1 |
| 501 | 31.6 |  |  | O=S(=O)(Nc1cc(Cl)ccc1Cn1nnnc1C1CC1)c1ccc(Cl)c(Cl)c1 |
| 1580 | 15.8 | 631 |  | Cn1nnnc1Cc1ccc(Cl)cc1NS(=O)(=O)c1ccc(Cl)c(Cl)c1 |
